Test results published in patent US20040082479A1, “Method for soil sterilization from pathogens” (priority 2001, published 2004).

Columns and labels:
Rhizoctonia solani Kuhn = test: Linear (radial) growth of fungi in vitro on potato dextrose agar with allicin; format: cell-based; details: PDA; for Linear growth, mm radius of growth: 0.1 ml allicin solution 2 mg/ml; for Effect on growth of the fungus (in words): in vitro
Procedure: (§1) Pure allicin in aqueous solution at 2 mg/ml was obtained as previously described in International PCT Publication WO 97/39115, following the interaction of synthetic, nature-identical alliin (allylcysteine sulfoxide) with a preparation of stabilized garlic alliinase. Fungal plant pathogens were grown in soil as previously described (Ko et al, 1971). Contamination of soil with Rhizoctonia solani and infection of bean seedlings was determined as previously reported (Chet, 1987).
(§2) The effect of allicin on the growth of a number of known soil fungal pathogens was examined in vitro. Fungi were innoculated in Petri dishes containing potato dextrose agar (PDA, Difco) and the radial growth rate of the fungi was measured every 24 hours. The effect of the addition of 0.1 ml of a solution of allicin (2.0 mg/ml) on the radial growth rate of the pathogen was determined after 24, 48, 72 and 96 hours.

[1] = tested on: Fusarium oxysporum f. sp. vasinfectum; test: as above; format: cell-based; details: PDA; for Linear growth, mm radius of growth: 0.1 ml allicin solution 2 mg/ml; for Effect on growth of the fungus (in words): in vitro
Procedure: as §1, §2

Trichoderma hurzianum = test: as above; format: cell-based; details: PDA; for Linear growth, mm radius of growth: 0.1 ml allicin solution 2 mg/ml; for Effect on growth of the fungus (in words): in vitro
Procedure: as §1, §2

Sclerotinia sclerotiorum = test: as above; format: cell-based; details: PDA; for Linear growth, mm radius of growth: 0.1 ml allicin solution 2 mg/ml; for Effect on growth of the fungus (in words): in vitro
Procedure: as §1, §2

Sclerotium Rolfsii Sacc. = test: as above; format: cell-based; details: PDA; for Linear growth, mm radius of growth: 0.1 ml allicin solution 2 mg/ml; for Effect on growth of the fungus (in words): in vitro
Procedure: as §1, §2

Rhizoctonia solani = test: Diseased bean plants (Phaseolus vulgaris L.) grown in Rhizoctonia solani contaminated soil pre-treated with allicin; format: in vivo
Procedure: as §1
Boxes with raw red-brown, sandy loam soil (0.5 Kg) 1.0 were precontaminated with viable Rhizoctonia solani. The fungi-contaminated soil in the boxes were subsequently irrigated with aqueous solutions (30 ml/box) containing different concentrations of allicin (A: 0.31 mg allicin/ml; B: 0.62 mg allicin/ml; C: 0.94 mg allicin/ml; D: 1.25 mg allicin/ml). Irrigations were repeated 3 times, with 3 days intervals between treatments. Controls were irrigated with similar volumes of water. Four soil replicates were irrigated for each allicin concentration as well as for the control. Following each irrigation step, the soil boxes were closed in nylon bags. Four days after the last irrigation, the bags were opened and the boxes with the soil ventilated for 5 more days.
Bean seeds (Phaseolus vulgaris L.) (10/box) were then planted in each of the boxes and the growth and development of disease in the plants was determined after 14 days. As shown in Table 2 and FIGS. 1-2, black columns, 86% of the control plants became diseased whereas in soil pre-irrigated with 0.94 (FIGS. 1-2, C) and 1.25 (FIGS. 1-2, D) mg/ml allicin, less than 20% of the plants became diseased (decrease of >80% in diseased plants, FIG. 2). The effect of allicin was dose-dependent and at the lowest concentration tested (0.31 mg allicin/ml), the decrease in the number of diseased plants was only 14% (Table 2 and FIGS. 1-2, black columns).
In order to test the time length efficacy of soil that was pre-treated with allicin, an additional experiment was done in the same soil boxes. After the first cycle of the bean growth experiment for 14 days described above, the plants were removed and a second cycle of bean growth was conducted whereby a new set of bean seeds was immediately seeded in the same soil boxes and the development of disease in the plants grown in this second cycle was determined after 14 days. The results are shown in Table 2 and in FIGS. 1-2, gray columns. […] Some protection (33%) was also observed in soils irrigated with 0.94 mg allicin/ml (C).

Which results are given for `C=CCS[S+]([O-])CC=C` (stereo not shown) [Allicin, thio-2-propene-1-sulfinic acid S-allyl ester]?
Linear growth, mm radius of growth (Rhizoctonia solani Kuhn; 24 hrs): 2.5 mm; Linear growth, mm radius of growth (Rhizoctonia solani Kuhn; 48 hrs): 7.5 mm; Linear growth, mm radius of growth (Rhizoctonia solani Kuhn; 72 hrs): 15 mm; Effect on growth of the fungus (in words) (Rhizoctonia solani Kuhn): Very significant inhibition of growth; Linear growth, mm radius of growth ([1]; 24 hrs): 2.5 mm; Linear growth, mm radius of growth ([1]; 48 hrs): 7.5 mm; Linear growth, mm radius of growth ([1]; 72 hrs): 12.5 mm; Linear growth, mm radius of growth ([1]; 96 hrs): 15 mm; Effect on growth of the fungus (in words) [1]: Very significant inhibition of growth; Linear growth, mm radius of growth (Trichoderma hurzianum; 24 hrs): 2.5 mm; Linear growth, mm radius of growth (Trichoderma hurzianum; 48 hrs): 7.5 mm; Linear growth, mm radius of growth (Trichoderma hurzianum; 72 hrs): 22.5 mm; Effect on growth of the fungus (in words) (Trichoderma hurzianum): Very significant inhibition of growth; Linear growth, mm radius of growth (Sclerotinia sclerotiorum; 24 hrs): 0.5 mm; Linear growth, mm radius of growth (Sclerotinia sclerotiorum; 48 hrs): 7.5 mm; Linear growth, mm radius of growth (Sclerotinia sclerotiorum; 72 hrs): 20 mm; Linear growth, mm radius of growth (Sclerotinia sclerotiorum; 96 hrs): 45 mm; Effect on growth of the fungus (in words) (Sclerotinia sclerotiorum): Very significant inhibition of growth; Linear growth, mm radius of growth (Sclerotium Rolfsii Sacc.; 24 hrs): 0 mm; Linear growth, mm radius of growth (Sclerotium Rolfsii Sacc.; 48 hrs): 2.5 mm; Linear growth, mm radius of growth (Sclerotium Rolfsii Sacc.; 72 hrs): 15 mm; Effect on growth of the fungus (in words) (Sclerotium Rolfsii Sacc.): Very significant inhibition of growth; Diseased Plants (%) (Rhizoctonia solani; First Cycle (14 days after planting), treatment A: 0.31 mg allicin/ml (30 ml), 3 irrigations, 0.5 Kg soil): 74%; Diseased Plants (%) (Rhizoctonia solani; First Cycle (14 days after planting), treatment B: 0.62 mg allicin/ml (30 ml), 3 irrigations, 0.5 Kg soil): 39%; Diseased Plants (%) (Rhizoctonia solani; First Cycle (14 days after planting), treatment C: 0.94 mg allicin/ml (30 ml), 3 irrigations, 0.5 Kg soil): 16%; Diseased Plants (%) (Rhizoctonia solani; First Cycle (14 days after planting), treatment C: 0.94 mg allicin/ml (30 ml), 3 irrigations, 0.5 Kg soil, listed as allicin): less than 20%; Diseased Plants (%) (Rhizoctonia solani; First Cycle (14 days after planting), treatment D: 1.25 mg allicin/ml (30 ml), 3 irrigations, 0.5 Kg soil): 18%; Diseased Plants (%) (Rhizoctonia solani; First Cycle (14 days after planting), treatment D: 1.25 mg allicin/ml (30 ml), 3 irrigations, 0.5 Kg soil, listed as allicin): less than 20%; Diseased Reduction (%) (Rhizoctonia solani; First Cycle, treatment A: 0.31 mg allicin/ml (30 ml)): 14%; Diseased Reduction (%) (Rhizoctonia solani; First Cycle, treatment B: 0.62 mg allicin/ml (30 ml)): 55%; Diseased Reduction (%) (Rhizoctonia solani; First Cycle, treatment C: 0.94 mg allicin/ml (30 ml)): 81%; Diseased Reduction (%) (Rhizoctonia solani; First Cycle, treatment C: 0.94 mg allicin/ml (30 ml), listed as allicin): > 80%; Diseased Reduction (%) (Rhizoctonia solani; First Cycle, treatment D: 1.25 mg allicin/ml (30 ml)): 90%; Diseased Reduction (%) (Rhizoctonia solani; First Cycle, treatment D: 1.25 mg allicin/ml (30 ml), listed as allicin): > 80%; Diseased Plants (%) (Rhizoctonia solani; Second Cycle (14 days after replanting), treatment A: 0.31 mg allicin/ml (30 ml)): 90%; Diseased Plants (%) (Rhizoctonia solani; Second Cycle (14 days after replanting), treatment A: 0.31 mg allicin/ml (30 ml), listed as allicin): almost identical to that of the controls; Diseased Plants (%) (Rhizoctonia solani; Second Cycle (14 days after replanting), treatment B: 0.62 mg allicin/ml (30 ml)): 80%; Diseased Plants (%) (Rhizoctonia solani; Second Cycle (14 days after replanting), treatment B: 0.62 mg allicin/ml (30 ml), listed as allicin): almost identical to that of the controls; Diseased Plants (%) (Rhizoctonia solani; Second Cycle (14 days after replanting), treatment C: 0.94 mg allicin/ml (30 ml)): 60%; Diseased Plants (%) (Rhizoctonia solani; Second Cycle (14 days after replanting), treatment D: 1.25 mg allicin/ml (30 ml)): 30%; Diseased Reduction (%) (Rhizoctonia solani; Second Cycle, treatment A: 0.31 mg allicin/ml (30 ml)): 0%; Diseased Reduction (%) (Rhizoctonia solani; Second Cycle, treatment B: 0.62 mg allicin/ml (30 ml)): 11%; Diseased Reduction (%) (Rhizoctonia solani; Second Cycle, treatment C: 0.94 mg allicin/ml (30 ml)): 33%; Diseased Reduction (%) (Rhizoctonia solani; Second Cycle, treatment D: 1.25 mg allicin/ml (30 ml)): 66%

“allylcysteine sulfoxide [alliin, reference compound]” was tested. Which “Effect on growth of the fungus (in words)” value (“Effect on growth” for short) (Rhizoctonia solani Kuhn) did it give?
The value was “no effect”.

And the “Effect on growth” value [1]?
The value was “no effect”.

And the “Effect on growth” value (Trichoderma hurzianum)?
Its value is “no effect”.

And the “Effect on growth” value (Sclerotinia sclerotiorum)?
Its value is “no effect”.

What about the “Effect on growth” value (Sclerotium Rolfsii Sacc.) of the same compound?
The value was “no effect”.
